In brackets after ≈: the same amount, converted by molar mass. Structures can show the parent of a compound that is named as a salt. Where two headings read alike, the source gives them in different places.
What was measured:
[1] = system: Aspergillus niger (ANIG); assay: Minimum inhibitory concentration (MIC), broth two-fold serial dilution test; format: cell-based; conditions: Aspergillus niger
[2] = system: Aureobasidium pullulans (APUL); assay: as above; format: cell-based; conditions: Aureobasidium pullulans
[3] = system: Botrytis cinerea (BOC); assay: In-vitro plant fungicide test; format: cell-based; conditions: Botrytis cinerea, 25 ppm; Table IVa; *=Phytotoxic; read-out: % Control at 25 ppm BOC
[4] = system: Fusarium roseum (FUS); assay: In-vitro plant fungicide test; format: cell-based; conditions: Fusarium sambucinum, read-out: % Control at 25 ppm FUS, 25 ppm; Table IVa; *=Phytotoxic
[5] = system: Cochliobolus sativus (HEL); assay: In-vitro plant fungicide test; format: cell-based; conditions: Bipolaris sorokiniana, 25 ppm; Table IVa; *=Phytotoxic; read-out: % Control at 25 ppm HEL
[6] = system: Phytophthora capsici (PHY); assay: In-vitro plant fungicide test; format: cell-based; conditions: Phytophthora capsici; 25 ppm; Table IVa; read-out: % Control at 25 ppm PHY
[7] = system: Piricularia oryzae (PIR); assay: microbe, parasite or virus in culture; format: cell-based; conditions: read-out: % Control at 25 ppm PIR
[8] = system: Pythium ultimum (PYU); assay: In-vitro plant fungicide test; format: cell-based; conditions: Globisporangium ultimum; 25 ppm; Table IVa; read-out: % Control at 25 ppm PYU
[9] = system: Rhizoctonia solani (RHI); assay: In-vitro plant fungicide test; format: cell-based; conditions: Rhizoctonia solani; 25 ppm; Table IVa; read-out: % Control at 25 ppm RHI
[10] = system: Septoria nodorum (SEP); assay: In-vitro plant fungicide test; format: cell-based; conditions: Parastagonospora nodorum, 25 ppm; Table IVa; read-out: % Control at 25 ppm SEP
[11] = system: Xanthomonas campestris (XAN); assay: In-vitro plant fungicide test; format: cell-based; conditions: Xanthomonas campestris; 25 ppm; Table IVa; read-out: % Control at 25 ppm XAN
[12] = system: THREE FUNGI; assay: MIC test against three fungi in Mycophile Broth, pH 5.0, read after 8 days (Table VII); format: cell-based; conditions: 192 h
[13] = system: Pseudomonas fluorescens (PSFL); assay: Minimum inhibitory concentration (MIC), broth two-fold serial dilution test; conditions: Pseudomonas fluorescens
[14] = system: Pseudomonas aerugenosa (PSAE); assay: as above; conditions: Pseudomonas
[15] = system: Escherichia coli (ECOL); assay: as above; conditions: Escherichia coli
[16] = system: Staphylococcus aureus (SAUR); assay: as above; conditions: Staphylococcus aureus
[17] = system: MIXED COOLING TOWER ALGAE; assay: MIC test against mixed cooling tower algae; format: cell-based, green algae and blue-green bacteria; conditions: Table VIII
Method: The algae culture contains green algae and blue-green bacteria, and is obtained from a cooling tower in Spring House, Pennsylvania. The algae culture is grown in Allen's medium on a rotary shaker under flourescent room lighting. This culture is further diluted with Allen's medium and then added to the test vessel.

[18] = system: 8 FUNGI; assay: Microbicides secondary test against 8 fungi on Mycophile Agar at pH 5.0 (Table VI); format: cell-based; design: key: 1= no growth; 0= growth of the indicated fungi at dose indicated in ppm; conditions: for ANIG growth: Aspergillus niger; for APUL growth: Aureobasidium pullulans; for CGLO growth: Chaetomium globosum; for CRES growth: Cladosporium resinae; for GTRA growth: Gloeophyllum trabeum; for PFUN growth: Penicillium funiculosum; for RRUB growth: Rhodotorula rubra; for SSER growth: Sacharomyces cerevisiae
Description: The results of the minimum inhibitory concentration (MIC) tests of compounds of this invention are shown in Tables IIIa IIIb, IIIc, V, VI, VII, and VIII against the microorganisms shown in Table IX.

[19] = Aspergillus niger, serial dilutions from 50 ppm, read after 8 days of incubation, read-out: MIC ANIG
[20] = Aureobasidium pullulans, serial dilutions from 50 ppm, read after 8 days of incubation, read-out: MIC APUL
[21] = Gloeophyllum trabeum, serial dilutions from 50 ppm, read after 8 days of incubation, read-out: MIC GTRA
[22] = read-out: MIC (G-) PSFL, M9G (minimal salts media with glucose), Table IIIc, iodopropargyl esters of peptides
[23] = read-out: MIC (G-) PSAE, M9G (minimal salts media with glucose), Table IIIc, iodopropargyl esters of peptides
[24] = read-out: MIC (G-) ECOL, M9G (minimal salts media with glucose), Table IIIc, iodopropargyl esters of peptides
[25] = read-out: MIC (G+) SAUR, M9G (minimal salts media with glucose), Table IIIc, iodopropargyl esters of peptides
[26] = read-out: MIC (F) ANIG, M9G (minimal salts media with glucose), Table IIIc, iodopropargyl esters of peptides
[27] = read-out: MIC (F) APUL, M9G (minimal salts media with glucose), Table IIIc, iodopropargyl esters of peptides
[28] = Aspergillus niger, pH 5, read-out: MIC ANIG, Aspergillus niger, serial dilutions from 50 ppm, read after 8 days of incubation
[29] = Aureobasidium pullulans, pH 5, read-out: MIC APUL, Aureobasidium pullulans, serial dilutions from 50 ppm, read after 8 days of incubation
[30] = Gloeophyllum trabeum, pH 5, read-out: MIC GTRA, Gloeophyllum trabeum, serial dilutions from 50 ppm, read after 8 days of incubation

C[C@H](NC(=O)OC(C)(C)C)C(=O)N[C@H](C(=O)OCC#CI)[C@@H](C)OCc1ccccc1 [Compound 16, N-t-butoxycarbonyl-L-alanyl-O-benzyl-L-threonine iodopropargyl ester]
MIC ([1]; M9G (minimal salts media with glucose), Table IIIc, iodopropargyl esters of peptides, read-out: MIC (F) ANIG): 13 µg/mL | MIC ([2]; M9G (minimal salts media with glucose), Table IIIc, iodopropargyl esters of peptides, read-out: MIC (F) APUL): < 0.8 µg/mL | inhibition of growth at 25 ppm [3]: 0% | inhibition of growth at 25 ppm [4]: 0% | inhibition of growth at 25 ppm [5]: 0% | inhibition of growth at 25 ppm [6]: 0% | inhibition of growth at 25 ppm [7]: 100% | inhibition of growth at 25 ppm [8]: 100% | inhibition of growth at 25 ppm [9]: 100% | inhibition of growth at 25 ppm [10]: 100% | inhibition of growth at 25 ppm [11]: 0% | MIC [12, 19]: > 50 µg/mL | MIC [12, 20]: > 50 µg/mL | MIC [12, 21]: 25 µg/mL (≈ 45.9 µM) | MIC [13, 22]: > 100 µg/mL | MIC [14, 23]: > 100 µg/mL | MIC [15, 24]: > 100 µg/mL | MIC [16, 25]: 6 µg/mL

C[C@H](N)C(=O)NCC(=O)OCC#CI [Compound 17, L-alanylglycine iodopropargyl ester trifluoroacetate]
MIC [1, 26]: < 0.8 µg/mL | MIC [2, 27]: < 0.8 µg/mL | inhibition of growth at 25 ppm [3]: 75% | inhibition of growth at 25 ppm [4]: 100% | inhibition of growth at 25 ppm [5]: 50% | inhibition of growth at 25 ppm [6]: 100% | inhibition of growth at 25 ppm [7]: 100% | inhibition of growth at 25 ppm [8]: 100% | inhibition of growth at 25 ppm [9]: 100% | inhibition of growth at 25 ppm [10]: 75% | inhibition of growth at 25 ppm [11]: 0% | MIC [12, 28]: 12.5 µg/mL | MIC [12, 29]: 50 µg/mL | MIC [12, 30]: 25 µg/mL | MIC [13, 22]: 100 µg/mL | MIC [14, 23]: 100 µg/mL | MIC [15, 24]: 100 µg/mL | MIC [16, 25]: 100 µg/mL

C[C@H](N)C(=O)N[C@@H](C)C(=O)OCC#CI [Compound 18, L-alanyl-L-alanine iodopropargyl ester trifluoroacetate]
MIC [1, 26]: < 0.8 µg/mL | MIC [2, 27]: < 0.8 µg/mL | inhibition of growth at 25 ppm [3]: 50% | inhibition of growth at 25 ppm [4]: 100% | inhibition of growth at 25 ppm [5]: 100% | inhibition of growth at 25 ppm [6]: 100% | inhibition of growth at 25 ppm [7]: 100% | inhibition of growth at 25 ppm [8]: 100% | inhibition of growth at 25 ppm [9]: 100% | inhibition of growth at 25 ppm [10]: 100% | inhibition of growth at 25 ppm [11]: 0% | MIC [12, 28]: 12.5 µg/mL | MIC [12, 29]: 50 µg/mL | MIC [12, 30]: 12.5 µg/mL | MIC [13, 22]: 100 µg/mL | MIC [14, 23]: 100 µg/mL | MIC [15, 24]: 100 µg/mL | MIC [16, 25]: > 100 µg/mL

C[C@H](N)C(=O)N[C@@H](CSCc1ccccc1)C(=O)OCC#CI [Compound 20, L-alanyl-S-benzyl-L-cysteine iodopropargyl ester trifluoroacetate]
MIC [1, 26]: < 0.8 µg/mL | MIC [2, 27]: < 0.8 µg/mL | inhibition of growth at 25 ppm [3]: 0% | inhibition of growth at 25 ppm [4]: 100% | inhibition of growth at 25 ppm [5]: 100% | inhibition of growth at 25 ppm [6]: 100% | inhibition of growth at 25 ppm [7]: 100% | inhibition of growth at 25 ppm [8]: 100% | inhibition of growth at 25 ppm [9]: 100% | inhibition of growth at 25 ppm [10]: 100% | inhibition of growth at 25 ppm [11]: 0% | MIC [12, 28]: 50 µg/mL | MIC [12, 29]: 50 µg/mL | MIC [12, 30]: 12.5 µg/mL | MIC [13, 22]: 100 µg/mL | MIC [14, 23]: 100 µg/mL | MIC [15, 24]: 100 µg/mL | MIC [16, 25]: 100 µg/mL

C[C@H](N)C(=O)N[C@H](C(=O)OCC#CI)[C@@H](C)OCc1ccccc1 [Compound 21, L-alanyl-O-benzyl-L-threonine iodopropargyl ester trifluoroacetate]
MIC [1, 26]: < 0.8 µg/mL | MIC [2, 27]: 1.6 µg/mL | inhibition of growth at 25 ppm [3]: 0% | inhibition of growth at 25 ppm [4]: 0% | inhibition of growth at 25 ppm [5]: 0% | inhibition of growth at 25 ppm [6]: 100% | inhibition of growth at 25 ppm [7]: 100% | inhibition of growth at 25 ppm [8]: 100% | inhibition of growth at 25 ppm [9]: 100% | inhibition of growth at 25 ppm [10]: 100% | inhibition of growth at 25 ppm [11]: 0% | MIC [12, 28]: 50 µg/mL | MIC [12, 29]: > 50 µg/mL | MIC [12, 30]: 50 µg/mL | MIC [13, 22]: 100 µg/mL | MIC [14, 23]: 100 µg/mL | MIC [15, 24]: 100 µg/mL | MIC [16, 25]: > 100 µg/mL

O=C(CNC(=O)OCc1ccccc1)OCC#CI [Compound 31, N-benzyloxycarbonylglycine iodopropargyl ester]
MIC ([1]; IIIB, trypticase soy broth (complex media), Table IIIb, read-out: MIC (F) ANIG): 2 µg/mL (≈ 5.36 µM) | MIC ([2]; IIIB, trypticase soy broth (complex media), Table IIIb, read-out: MIC (F) APUL): 4 µg/mL (≈ 10.7 µM) | MIC [17]: 6.2 µg/mL (≈ 16.6 µM) | ANIG growth ([18]; 0.2 PPM): 0 | ANIG growth ([18]; 1.0 PPM): 0 | ANIG growth ([18]; 2.5 PPM): 1 | ANIG growth ([18]; 25 PPM): 1 | APUL growth ([18]; 0.2 PPM): 0 | APUL growth ([18]; 1.0 PPM): 0 | APUL growth ([18]; 2.5 PPM): 0 | APUL growth ([18]; 25 PPM): 1 | CGLO growth ([18]; 0.2 PPM): 0 | CGLO growth ([18]; 1.0 PPM): 0 | CGLO growth ([18]; 2.5 PPM): 1 | CGLO growth ([18]; 25 PPM): 1 | CRES growth ([18]; 0.2 PPM): 0 | CRES growth ([18]; 1.0 PPM): 0 | CRES growth ([18]; 2.5 PPM): 0 | CRES growth ([18]; 25 PPM): 1 | GTRA growth ([18]; 0.2 PPM): 0 | GTRA growth ([18]; 1.0 PPM): 0 | GTRA growth ([18]; 2.5 PPM): 1 | GTRA growth ([18]; 25 PPM): 1 | PFUN growth ([18]; 0.2 PPM): 0 | PFUN growth ([18]; 1.0 PPM): 0 | PFUN growth ([18]; 2.5 PPM): 1 | PFUN growth ([18]; 25 PPM): 1 | RRUB growth ([18]; 0.2 PPM): 0 | RRUB growth ([18]; 1.0 PPM): 0 | RRUB growth ([18]; 2.5 PPM): 0 | RRUB growth ([18]; 25 PPM): 1 | SSER growth ([18]; 0.2 PPM): 0 | SSER growth ([18]; 1.0 PPM): 0 | SSER growth ([18]; 2.5 PPM): 0 | SSER growth ([18]; 25 PPM): 1 | MIC [12, 19]: 1.6 µg/mL (≈ 4.29 µM) | MIC [12, 20]: 6.2 µg/mL (≈ 16.6 µM) | MIC [12, 21]: 0.8 µg/mL (≈ 2.14 µM) | MIC ([13]; IIIB, read-out: MIC (G-) PSFL, trypticase soy broth (complex media), Table IIIb): 32 µg/mL (≈ 85.8 µM) | MIC ([14]; IIIB, read-out: MIC (G-) PSAE, trypticase soy broth (complex media), Table IIIb): 63 µg/mL (≈ 169 µM) | MIC ([15]; IIIB, read-out: MIC (G-) ECOL, trypticase soy broth (complex media), Table IIIb): 250 µg/mL (≈ 670 µM) | MIC ([16]; IIIB, read-out: MIC (G+) SAUR, trypticase soy broth (complex media), Table IIIb): 32 µg/mL (≈ 85.8 µM)
